# Test results: patent US20110301239A1, “USE OF NOVEL LIPID MEDIATORS TO INHIBIT ANGIOGENESIS” (The Brigham and Women's Hospital, Inc., priority 2008, published 2011)
# What was measured:
# PMN infiltration = assay: Peritonitis model, PMN infiltration; type: in vivo
# TNF-α = assay: Real-time PCR of TNF-α mRNA in suture-inflamed corneas; type: in vivo, BALB/c mice; conditions: vs vehicle
# Description: (§1) Six to eight-week-old male BALB/c (Taconic Farms, Germantown, N.Y.) mice were used in all experiments. All experimental protocols were approved by the Schepens Eye Research Institute Animal Care and Use Committee, and all animals were treated according to the Association for Research in Vision and Ophthalmology Statement for the Use of Animals in Ophthalmic and Vision Research.
# (§2) The standard model for induction of inflammatory corneal NV is associated with development of intrastromal vessels in close association with a mixed-cell (primarily neutrophilic) infiltrate.^14,15 Three interrupted sutures (11-0 nylon, Sharpoint; Vanguard, Houston, Tex.) were placed intrastromally with two stromal incursions extending over 120° of the corneal circumference each to induce inflammatory corneal NV, which is also associated with significant LA, as described previously.^14 The corneas were followed by slit-lamp biomicroscopy for corneal NV development. NV was graded between 0 and 3, with increments of 0.5, using a grid system per each corneal quadrant based on the centripetal extent of the neovascular branches from the limbus. Scores for each quadrant then summed to derive the NV index (range 0 to 12) for each eye, as previously described.^14
# (§3) BALB/c mice were randomized to receive RvD1, RvE1 or vehicle (normal saline) by subconjunctival injection in a masked fashion after suture or hydron pellet placement. The compounds were administered at a dose of 100 ng/10 μl per mouse every 48 h after suture or pellet placed. For these experiments, RvD1 and RvE1 were prepared by total organic synthesis as reported previously,^17,18 in the total organic synthesis core for NIH P-50 DE0169191. The physical properties were monitored routinely via LC/MS/MS matching the reported biological and physical properties prior to analysis in present experiments.
# Corneas were carefully dissected to ensure that the conjunctival and iris tissues were not included. To extract mRNA from whole-thickness corneas, two corneas were pooled as a sample in each group. To extract mRNA from corneal epithelial and stroma-endothelial layers separately, intact corneas were placed in 30 μl of RNA stabilization reagent (RNAlater, Qiagen, Valencia, Calif.) at 4° C. overnight and then stored at −30° C. for 2-3 days. […]
# (§4) A combined-method for total RNA isolation was employed, using Trizol (Invitrogen Corp., Carlsbad, Calif.) and RNeasy MinElute Spin Columns (Qiagen, Valencia, Calif.), as described previously.^21 Reverse transcription of total RNA was conducted using oligo(dT)20 primer and Superscript™ III Reverse Transcriptase (Invitrogen, Carlsbad, Calif.). […] The mean density of each band was measured by using NIH image J software. […]
# [1] = system: suture-induced corneal NV; assay: Suture-induced inflammatory corneal angiogenesis (slit-lamp NV score, CD31/LYVE-1 vessel density); type: in vivo, BALB/c mice; conditions: for angiogenic response (corneal neovessels by slit lamp biomicroscopy): 2-week time course, subconjunctival every 48 h, relative to vehicle control; for significant changes in the density of lymphatic vessels / BV density (CD31high/LYVE-1−): day 14 after suture placement; for significant changes in the density of lymphatic vessels: relative to vehicle controls; for BV density (CD31high/LYVE-1−): mean±SEM, n=6, vehicle 23.18±1.12%
# Description: as §1, §2, §3
# (§5) Full thickness corneal tissue or 8 μm-frozen sections were fixed in acetone for 15 minutes at room temperature. To block non-specific staining, anti-FcR mAb ([…], FcγIII/II receptor) or 10% goat serum was used before primary antibodies or isotype-matched control antibodies were applied at 4° C. overnight. Thereafter, samples were incubated with secondary antibodies at RT. Each step was followed by three thorough washings in PBS for 5-10 minutes. Finally, the samples were covered with mounting medium (Vector Laboratories, Burlingame, Calif.) and analyzed by epifluorescence microscopy (Eclipse E800; Nikon, Tokyo, Japan). The following antibodies were used: FITC-conjugated rat anti-mouse CD31 (Santa Cruz Biotechnology, Santa Cruz, Calif.), purified rat anti-mouse neutrophil (NIMP-R14, Abcam, Cambridge, Mass.), purified rat anti-mouse F4/80 (Novus Biologicals, Littleton, Colo.) and purified rabbit anti-mouse LYVE-1 (Abcam, Cambridge, Mass.). The secondary antibodies were Rodamine-conjugated donkey anti-rabbit IgG and Rodamine-conjugated goat anti-rat IgG (Santa Cruz Biotechnology, Santa Cruz, Calif.). Isotype controls included FITC-conjugated rat IgG2a, purified rat IgG2b, and purified rabbit IgG (Santa Cruz Biotechnology, Santa Cruz, Calif.).
# To quantify corneal angiogenesis, digital pictures of corneal flat-mounts were taken using an image analysis system (Spot Image Analysis, Diagnostic Instruments, Sterling Heights, Mich.). The areas covered by CD31^high/LYVE-1^−-vessels (blood vessels) or CD31^lowLYVE-1^high vessels (lymphatics) were measured morphometrically using NIH Image J software (version 1.34s; http://rsb.info.nih.gov/ij). The total corneal area was outlined using the inner-most vessel of the limbal arcade as the border. The vessel density was calculated by the proportion of neovascularized area to the whole corneal area.
# [2] = system: IL-1β-induced corneal HA and LA; assay: Corneal micropocket assay, IL-1β pellet; type: in vivo, BALB/c mice; conditions: day 7; for BV density: IL-1β micropellet, mean±SEM, n=4, vehicle 26.8±2.0%, significantly impaired; for reduction of LA: stimulated by IL-1β micropellet
# Description: as §1
# (§6) The corneal micropocket assay in mice and quantification of the resultant NV has been described previously.^16,17 In brief, 0.3 μl of hydron pellets (IFN Sciences, New Brunswick, N.J.) containing 30 ng of murine IL-1β (R&D Systems, Minneapolis, Minn.) or 200 ng of VEGF-A (gift from BRB Preclinical Repository, National Cancer Institute) were prepared and implanted into the corneal stroma of male BALB/c mice. After 7 days the animals were sacrificed and the corneas were harvested for quantitative analysis of HA and LA.
# as §3
# (§7) Full thickness corneal tissue or 8 μm-frozen sections were fixed in acetone for 15 minutes at room temperature. To block non-specific staining, anti-FcR mAb ([…], FcγIII/II receptor) or 10% goat serum was used before primary antibodies or isotype-matched control antibodies were applied at 4° C. overnight. Thereafter, samples were incubated with secondary antibodies at RT. Each step was followed by three thorough washings in PBS for 5-10 minutes. Finally, the samples were covered with mounting medium (Vector Laboratories, Burlingame, Calif.) and analyzed by epifluorescence microscopy (Eclipse E800; Nikon, Tokyo, Japan). […]
# (§8) To quantify corneal angiogenesis, digital pictures of corneal flat-mounts were taken using an image analysis system (Spot Image Analysis, Diagnostic Instruments, Sterling Heights, Mich.). The areas covered by CD31^high/LYVE-1^−-vessels (blood vessels) or CD31^lowLYVE-1^high vessels (lymphatics) were measured morphometrically using NIH Image J software (version 1.34s; http://rsb.info.nih.gov/ij). […] The vessel density was calculated by the proportion of neovascularized area to the whole corneal area.
# VEGF-A = assay: Real-time PCR of VEGF-A mRNA in suture-inflamed corneas; type: in vivo, BALB/c mice; conditions: 24 h and 72 h after suture placement, vs vehicle-treated group
# Description: (§9) Six to eight-week-old male BALB/c (Taconic Farms, Germantown, N.Y.) mice were used in all experiments. All experimental protocols were approved by the Schepens Eye Research Institute Animal Care and Use Committee, and all animals were treated according to the Association for Research in Vision and Ophthalmology Statement for the Use of Animals in Ophthalmic and Vision Research. […]
# (§10) BALB/c mice were randomized to receive RvD1, RvE1 or vehicle (normal saline) by subconjunctival injection in a masked fashion after suture or hydron pellet placement. […] The physical properties were monitored routinely via LC/MS/MS matching the reported biological and physical properties prior to analysis in present experiments. […]
# as §4
# VEGFR-2 = assay: Real-time PCR of VEGFR-2 mRNA in suture-inflamed corneas; type: in vivo, BALB/c mice; conditions: 24 h and 72 h after suture placement, vs vehicle-treated group
# Description: as §9, §10, §4
# macrophages = assay: Macrophage infiltration in suture-inflamed corneas (anti-F4/80 staining of cross-sections); type: in vivo, BALB/c mice; conditions: 72 h after suture placement; 100 ng/10 μl subconjunctival; mean±SEM, n=3; vehicle 83±3
# Description: as §9
# BALB/c mice were randomized to receive RvD1, RvE1 or vehicle (normal saline) by subconjunctival injection in a masked fashion after suture or hydron pellet placement. […] The physical properties were monitored routinely via LC/MS/MS matching the reported biological and physical properties prior to analysis in present experiments.
# Full thickness corneal tissue or 8 μm-frozen sections were fixed in acetone for 15 minutes at room temperature. […] Finally, the samples were covered with mounting medium (Vector Laboratories, Burlingame, Calif.) and analyzed by epifluorescence microscopy (Eclipse E800; Nikon, Tokyo, Japan). […]
# VEGF-D = assay: Real-time PCR of VEGF-D mRNA in suture-inflamed corneas; type: in vivo, BALB/c mice; conditions: relative to vehicle-treated controls
# Description: as §9, §10, §4
# [3] = system: VEGF-A-induced corneal HA and LA; assay: Corneal micropocket assay, VEGF-A pellet; type: in vivo, BALB/c mice; conditions: day 7; for BV density: VEGF-A micropellet, mean±SEM, n=4, vehicle 14.75±3.8%, not significantly lower; for reduction of LA: stimulated by VEGF-A micropellet
# Description: as §1, §6, §3, §7, §8
# VEGFR-3 = assay: Real-time PCR of VEGFR-3 mRNA in suture-inflamed corneas; type: in vivo, BALB/c mice; conditions: relative to vehicle-treated controls
# Description: as §9, §10, §4
# IL-1α = assay: Real-time PCR of IL-1α mRNA in suture-inflamed corneas; type: in vivo, BALB/c mice; conditions: 24 h and 72 h after suture placement, vs vehicle
# Description: as §9, §10, §4
# VEGF-C = assay: Real-time PCR of VEGF-C mRNA in suture-inflamed corneas; type: in vivo, BALB/c mice; conditions: 24 h and 72 h after suture placement, vs vehicle-treated group
# Description: as §9, §10, §4
# neutrophils = assay: Neutrophil infiltration in suture-inflamed corneas (anti-neutrophil NIMP-R14 staining of cross-sections); type: in vivo, BALB/c mice; conditions: for neutrophils in inflamed cornea: 100 ng/10 μl subconjunctival at 0 h and 48 h, mean±SEM, n=3; for inhibition of neutrophils recruitment into the inflamed corneas: at 24 and 72 h, compared to vehicle-treated group, p<0.05
# Description: as §1, §2, §3, §5
# [4] = 24 h after suture placement, vehicle 81±6
# [5] = 72 h after suture placement, vehicle 57±4
SMILES,increases in TNF-α expression (mRNA) (TNF-α; 24 h after suture placement),increases in TNF-α expression (mRNA) (TNF-α; 72 h after suture placement),angiogenic response (corneal neovessels by slit lamp biomicroscopy) [1],significant changes in the density of lymphatic vessels [1],BV density (CD31high/LYVE-1−) [1],BV density [2],reduction of LA [2],mRNA expression of VEGF-A (VEGF-A),mRNA expression of VEGFR-2 (VEGFR-2),macrophage in inflamed cornea (macrophages),mRNA expression of VEGF-D (VEGF-D),BV density [3],reduction of LA [3],mRNA expression of VEGFR-3 (VEGFR-3),expression of IL-1α (mRNA) (IL-1α),mRNA expression of VEGF-C (VEGF-C),neutrophils in inflamed cornea (neutrophils; [4]),neutrophils in inflamed cornea (neutrophils; [5]),inhibition of neutrophils recruitment into the inflamed corneas (neutrophils),further results
"CCC(O)/C=C/C=C\C/C=C\C/C=C\C=C\[C@@H](O)CCCC(=O)O (mixture of isomers) [5S, 18 (+/−)-diHEPA]",,,,,,,,,,,,,,,,,,,,"anti-inflammatory activity, PMN infiltration (PMN infiltration): downregulation of PMN infiltration; potency compared with Resolvin E1 (PMN infiltration; at an equal dose amount): equipotent to Resolvin E1"
"CC/C=C\C[C@H](O)/C=C/C=C\C=C\C=C\[C@@H](O)[C@@H](O)C/C=C\CCC(=O)O [RvD1, 7S,8R,17S-trihydroxy-4Z,9E,11E,13Z,15E,19Z-docosahexaenoic acid]",significantly suppressed,not at 72 h,significant suppression,not observed,8.4±0.39%,17.1±2.4%,no significant reduction,lower mRNA expressions,lower mRNA expressions,57±4 cells/section,not significantly altered,10.9±2.3%,no significant reduction,not significantly altered,not significantly altered,lower mRNA expressions,62±4 cells/section,40±3 cells/section,~30%,
"CC[C@@H](O)/C=C/C=C\C[C@@H](O)/C=C/C=C/C=C\[C@@H](O)CCCC(=O)O [RvE1, 5S,12R,18R-trihydroxy-6Z,8E,10E,14Z,16E-EPA]",significantly suppressed,significant lowering,significant suppression,not observed,10.92±0.53%,18.6±2.2%,no significant reduction,lower mRNA expressions,lower mRNA expressions,49±7 cells/section,not significantly altered,14.1±2.2%,no significant reduction,not significantly altered,not significantly altered,lower mRNA expressions,52±4 cells/section,41±4 cells/section,~30%,
